Measurements as given in the NIST ThermoML archive (doi:10.1021/je800012v).

Assay: xn = mol fraction of the nth substance listed
Settings: Liquid

CCCCCl [1-chlorobutane] + CCCCCC
mass density [kg/m3]
Settings	x1 = 0.1099	x1 = 0.212	x1 = 0.2925	x1 = 0.316	x1 = 0.405	x1 = 0.4978	x1 = 0.5975	x1 = 0.6869	x1 = 0.8294	x1 = 0.9025
303.15 K, 15000 kPa	–	–	–	–	–	763.87	786.55	807.83	843.86	863.22
303.15 K, 20000 kPa	689.49	708.98	724.92	729.73	748.24	768.43	791.14	812.44	848.41	867.82
303.15 K, 25000 kPa	693.71	713.22	729.21	733.98	752.58	772.8	795.51	816.83	852.75	872.22
303.15 K, 30000 kPa	697.71	717.27	733.29	738.06	756.71	776.94	799.69	821.01	856.96	876.44
303.15 K, 35000 kPa	701.46	721.06	737.11	741.91	760.56	780.82	803.62	824.94	860.94	880.41
313.15 K, 100 kPa	660.25	679.39	695.16	699.82	718.21	738.18	760.7	781.81	817.54	836.89
313.15 K, 2500 kPa	663.22	682.37	698.14	702.79	721.17	741.14	763.65	784.75	820.43	839.76
313.15 K, 5000 kPa	666.15	685.31	701.06	705.74	724.11	744.08	766.58	787.66	823.33	842.65
313.15 K, 10000 kPa	671.67	690.86	706.6	711.27	729.65	749.65	772.1	793.2	828.82	848.11
313.15 K, 15000 kPa	676.77	695.99	711.76	716.43	734.82	754.83	777.29	798.39	833.99	853.27
313.15 K, 20000 kPa	681.54	700.78	716.6	721.27	739.68	759.7	782.18	803.3	838.9	858.17
313.15 K, 25000 kPa	686.03	705.32	721.16	725.85	744.28	764.34	786.8	807.96	843.57	862.84
313.15 K, 30000 kPa	690.26	709.59	725.44	730.12	748.61	768.68	791.2	812.36	847.97	867.27
313.15 K, 35000 kPa	694.28	713.66	729.55	734.28	752.76	772.87	795.4	816.59	852.24	871.55
323.15 K, 100 kPa	650.68	669.65	685.16	689.81	708	727.88	750.16	771.11	806.56	825.76
323.15 K, 2500 kPa	653.88	672.84	688.38	693.01	711.21	730.97	753.32	774.25	809.67	828.84
323.15 K, 5000 kPa	657.08	676.07	–	–	–	–	–	–	–	–
